Assays:
Format in all cases: in vivo, BALB/C male nude mice
[1] = test system: UM-UC-3 derived tumor xenografts; experiment: UM-UC-3 tumor xenograft growth in nude mice
Procedure: (§1) Each experiment was performed three times. All animals were adult BALB/C male nude mice of 8-12 weeks of age and experiments were performed in accordance with the National Institutes of Health Guide for the Care and Use of Laboratory Animals and approved by the animal research committee of Harbin Medical University, China.
(§2) Cells (1×10^6-7th/100 μL) embedded in BD Matrigel™ Matrix were subcutaneously injected at three sites in the back of each mouse (3-4 mice per treatment). On day 7-12th following cell injection, the animals were treated with the different drugs by an intraperitoneal injection, which was repeated every three days. Tumor volumes were monitored/calculated using the equation V=W^2L×0.5 (where W and L represent the […] tumor diameters (mm)) and then plotted. The tumor mass mice were weighed, fixed/sliced for immunohistochemistry after sacrificing the animals.
(§3) Two sets of tumor xenograft/nude mice studies were carried out. The in vivo study involves […]. Both mean±S.D of tumor volume and mass were calculated. […]
(§4) This example then compared the in vivo anticancer activity of EH/Ci/Mi regimen with its mono- and bi-drug counterparts on the 5637, UM-UC-3, or Biu87 cells derived tumor xenografts in nude mice. […] The tumor volumes were measured once every three days and were normalized by the volume on day 7. […]

[2] = test system: 5637 derived tumor xenografts; experiment: 5637 tumor xenograft growth in nude mice
Procedure: as §1, §2, §3, §4

[3] = test system: Biu87 derived tumor xenografts; experiment: Biu87 tumor xenograft growth in nude mice
Procedure: as §1, §2, §3, §4

[4] = test system: Ki67-positive cells in tumor xenografts; experiment: Ki67 immunohistochemistry of tumor xenografts; settings: relative to PBS controls; day 28
Procedure: (§5) Immunostaining was performed on 5 μm slices of formalin fixed paraffin-embedded tumor xenografts using antibodies from Gene Tech Company (Shanghai, China) against both Ki67 and CD34. Pictures were taken by LEICA DM 4000B microscope and the relative level of each protein was calculated using LEICA software. The relative staining per antibody (in percentage) in the […] tumors was calculated and plotted.
(§6) This example then compared the in vivo anticancer activity of EH/Ci/Mi regimen with its mono- and bi-drug counterparts on the 5637, UM-UC-3, or Biu87 cells derived tumor xenografts in nude mice. Since there is no established conversion rule for the drug dose in cell culture to in nude mice, this example used 75 μg per mouse for the mono-drug treatments and 25 μg per drug per mouse for both bi-drug and tri-drug combinations, based on the maximum tolerated drug dose recommended for these drugs. To minimize the inter-mouse bias's effect on tumor growth, three different BCa cell line-derived tumor xenografts were individually established subcutaneously on the back of the twelve mice (FIG. 5A). […] The tumor volumes were measured once every three days and were normalized by the volume on day 7. […]

[5] = test system: CD34 positive vascular structures in tumor xenografts; experiment: CD34 immunohistochemistry of tumor xenografts; settings: relative to PBS controls; day 28
Procedure: as §5, §6

N.N.[Cl][Pt][Cl] [Ci, (SP-4-2)-diamminedichloroplatinum(II)]
relative tumor weight ([1]; UM-UC-3 derived tumor, day 28, tri-drug group taken as 1): 3.37 | increase in tumor volume on day 28th (relative tumor volume) ([1]; UM-UC-3 xenograft, normalized by volume on day 7, i.p. at three-day interval, 75 μg per mouse mono-drug, 25 μg per drug per mouse combinations): 10.58 | relative tumor weight ([2]; 5637 derived tumor, day 28, tri-drug group taken as 1): 1.79 | relative tumor volume ([2]; 5637 xenograft, normalized by volume on day 7, i.p. at three-day interval, 75 μg per mouse mono-drug, 25 μg per drug per mouse combinations): 6.2 | relative tumor weight ([3]; Biu87 derived tumor, day 28, tri-drug group taken as 1): 1.48 | increase in tumor volume on day 28th (relative tumor volume) ([3]; Biu87 xenograft, normalized by volume on day 7, i.p. at three-day interval, 75 μg per mouse mono-drug, 25 μg per drug per mouse combinations): 4.95 | percentage of Ki67-positive cells in tumor xenografts [4]: reduced | numbers of CD34 positive vascular structures in tumor xenografts [5]: reduced

Reference: patent US10238688B2, “Combination therapies for bladder cancer” (GENEDIA BIOTECH CO. LTD., priority 2015, dated 2019)
